Assay results taken from publication PMC4832243, “Discovery of Potent VEGFR-2 Inhibitors based on Furopyrimidine and Thienopyrimidne Scaffolds as Cancer Targeting Agents” (Scientific Reports, 2016).

Columns and labels:
HCT-15 = experiment: NCI 60 cell line panel (SRB), HCT-15; assay type: cell-based; conditions: Homo sapiens; HCT-15, Colon Cancer; single dose of 10 μM; read-out: Cell Growth Percent
SF-268 = experiment: NCI 60 cell line panel (SRB), SF-268; assay type: cell-based; conditions: Homo sapiens; SF-268, CNS Cancer; single dose of 10 μM; read-out: Cell Growth Percent
SW-620 = experiment: NCI 60 cell line panel (SRB), SW-620; assay type: cell-based; conditions: Homo sapiens; SW-620, Colon Cancer; single dose of 10 μM; read-out: Cell Growth Percent
RXF 393 = experiment: NCI 60 cell line panel (SRB), RXF 393; assay type: cell-based; conditions: Homo sapiens; RXF 393, Renal Cancer; single dose of 10 μM; read-out: Cell Growth Percent
VEGFR-2 (KDR) = molecular target: T1, VEGFR-2 (KDR) (Homo sapiens, UniProt P35968); experiment: In vitro VEGFR-2 tyrosine kinase activity (Kinase-Glo Plus luminescence, BPS Bioscience); assay type: biochemical; conditions: for inhibition at 10 µM: single dose concentration of 10 μM
T1 construct: purchased BPS Bioscience 40301
T1 sequence (P35968 20-1356): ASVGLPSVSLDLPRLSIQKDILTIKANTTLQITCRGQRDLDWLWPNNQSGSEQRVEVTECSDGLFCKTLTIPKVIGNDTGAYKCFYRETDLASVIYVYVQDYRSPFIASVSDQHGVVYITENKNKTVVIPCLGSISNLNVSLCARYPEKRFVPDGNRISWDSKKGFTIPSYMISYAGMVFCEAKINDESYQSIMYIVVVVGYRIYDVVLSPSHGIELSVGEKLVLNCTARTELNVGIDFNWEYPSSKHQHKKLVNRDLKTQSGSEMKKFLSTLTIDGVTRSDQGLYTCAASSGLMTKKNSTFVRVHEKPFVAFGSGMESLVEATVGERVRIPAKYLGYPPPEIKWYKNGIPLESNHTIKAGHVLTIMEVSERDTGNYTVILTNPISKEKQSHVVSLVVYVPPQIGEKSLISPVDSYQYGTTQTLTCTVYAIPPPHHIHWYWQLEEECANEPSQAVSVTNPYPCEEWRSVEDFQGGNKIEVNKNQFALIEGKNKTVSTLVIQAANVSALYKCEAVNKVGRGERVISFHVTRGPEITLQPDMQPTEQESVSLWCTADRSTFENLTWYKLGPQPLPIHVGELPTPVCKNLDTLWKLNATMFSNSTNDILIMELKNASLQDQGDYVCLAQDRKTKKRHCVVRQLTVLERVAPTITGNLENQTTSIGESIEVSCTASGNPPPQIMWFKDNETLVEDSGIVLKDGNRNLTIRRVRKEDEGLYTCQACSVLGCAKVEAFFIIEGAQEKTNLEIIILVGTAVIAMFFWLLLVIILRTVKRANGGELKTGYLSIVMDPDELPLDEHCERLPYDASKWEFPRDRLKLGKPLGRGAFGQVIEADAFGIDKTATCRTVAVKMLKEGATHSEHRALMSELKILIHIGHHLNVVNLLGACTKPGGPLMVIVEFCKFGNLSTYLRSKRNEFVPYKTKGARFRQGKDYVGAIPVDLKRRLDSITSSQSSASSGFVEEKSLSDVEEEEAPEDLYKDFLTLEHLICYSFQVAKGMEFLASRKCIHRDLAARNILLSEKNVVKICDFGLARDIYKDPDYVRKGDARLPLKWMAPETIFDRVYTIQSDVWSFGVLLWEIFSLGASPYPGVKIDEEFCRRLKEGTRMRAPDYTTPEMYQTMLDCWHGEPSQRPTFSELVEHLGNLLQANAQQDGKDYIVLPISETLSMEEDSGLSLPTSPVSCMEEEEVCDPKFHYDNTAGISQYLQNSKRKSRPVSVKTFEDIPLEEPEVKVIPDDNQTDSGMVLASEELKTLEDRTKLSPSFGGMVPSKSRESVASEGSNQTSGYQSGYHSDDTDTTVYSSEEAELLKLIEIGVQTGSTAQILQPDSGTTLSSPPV

CCRF-CEM = experiment: NCI 60 cell line panel (SRB), CCRF-CEM; assay type: cell-based; conditions: Homo sapiens, Leukemia, single dose of 10 μM, read-out: Cell Growth Percent
ACHN = experiment: NCI 60 cell line panel (SRB), ACHN; assay type: cell-based; conditions: Homo sapiens, Renal Cancer, single dose of 10 μM, read-out: Cell Growth Percent
A498 = experiment: NCI 60 cell line panel (SRB), A498; assay type: cell-based; conditions: Homo sapiens; A498, Renal Cancer; single dose of 10 μM; read-out: Cell Growth Percent
NCI-H23 = experiment: NCI 60 cell line panel (SRB), NCI-H23; assay type: cell-based; conditions: Homo sapiens; NCI-H23, Non-Small Cell Lung Cancer; single dose of 10 μM; read-out: Cell Growth Percent
RPMI-8226 = experiment: NCI 60 cell line panel (SRB), RPMI-8226; assay type: cell-based; conditions: Homo sapiens; RPMI-8226, Leukemia; single dose of 10 μM; read-out: Cell Growth Percent
CAKI-1 = experiment: NCI 60 cell line panel (SRB), CAKI-1; assay type: cell-based; conditions: Homo sapiens; CAKI-1, Renal Cancer; single dose of 10 μM; read-out: Cell Growth Percent
NCI-H522 = experiment: NCI 60 cell line panel (SRB), NCI-H522; assay type: cell-based; conditions: Homo sapiens; NCI-H522, Non-Small Cell Lung Cancer; single dose of 10 μM; read-out: Cell Growth Percent
HT29 = experiment: NCI 60 cell line panel (SRB), HT29; assay type: cell-based; conditions: Homo sapiens, HT-29; HT29, Colon Cancer; single dose of 10 μM; read-out: Cell Growth Percent
HOP-92 = experiment: NCI 60 cell line panel (SRB), HOP-92; assay type: cell-based; conditions: Homo sapiens; HOP-92, Non-Small Cell Lung Cancer; single dose of 10 μM; read-out: Cell Growth Percent
MDA-MB-231/ATCC = experiment: NCI 60 cell line panel (SRB), MDA-MB-231/ATCC; assay type: cell-based; conditions: Homo sapiens, Breast Cancer, single dose of 10 μM, read-out: Cell Growth Percent
OVCAR-3 = experiment: NCI 60 cell line panel (SRB), OVCAR-3; assay type: cell-based; conditions: Homo sapiens; OVCAR-3, Ovarian Cancer; single dose of 10 μM; read-out: Cell Growth Percent
SK-MEL-2 = experiment: NCI 60 cell line panel (SRB), SK-MEL-2; assay type: cell-based; conditions: Homo sapiens; SK-MEL-2, Melanoma; single dose of 10 μM; read-out: Cell Growth Percent
MCF7 = experiment: NCI 60 cell line panel (SRB), MCF7; assay type: cell-based; conditions: Homo sapiens; MCF7, Breast Cancer; single dose of 10 μM; read-out: Cell Growth Percent
UACC-257 = experiment: NCI 60 cell line panel (SRB), UACC-257; assay type: cell-based; conditions: Homo sapiens; UACC-257, Melanoma; single dose of 10 μM; read-out: Cell Growth Percent
T-47D = experiment: NCI 60 cell line panel (SRB), T-47D; assay type: cell-based; conditions: Homo sapiens, T47D, Breast Cancer, single dose of 10 μM, read-out: Cell Growth Percent
NCI-H226 = experiment: NCI 60 cell line panel (SRB), NCI-H226; assay type: cell-based; conditions: Homo sapiens; NCI-H226, Non-Small Cell Lung Cancer; single dose of 10 μM; read-out: Cell Growth Percent
PC-3 = experiment: NCI 60 cell line panel (SRB), PC-3; assay type: cell-based; conditions: Homo sapiens; PC-3, Prostate Cancer; single dose of 10 μM; read-out: Cell Growth Percent
LOX IMVI = experiment: NCI 60 cell line panel (SRB), LOX IMVI; assay type: cell-based; conditions: Homo sapiens, Melanoma, single dose of 10 μM, read-out: Cell Growth Percent
EKVX = experiment: NCI 60 cell line panel (SRB), EKVX; assay type: cell-based; conditions: Homo sapiens, Non-Small Cell Lung Cancer, single dose of 10 μM, read-out: Cell Growth Percent
UO-31 = experiment: NCI 60 cell line panel (SRB), UO-31; assay type: cell-based; conditions: Homo sapiens; UO-31, Renal Cancer; single dose of 10 μM; read-out: Cell Growth Percent
HL-60(TB) = experiment: NCI 60 cell line panel (SRB), HL-60(TB); assay type: cell-based; conditions: Homo sapiens, Leukemia, single dose of 10 μM, read-out: Cell Growth Percent
SF-295 = experiment: NCI 60 cell line panel (SRB), SF-295; assay type: cell-based; conditions: Homo sapiens; SF-295, CNS Cancer; single dose of 10 μM; read-out: Cell Growth Percent
HCC-2998 = experiment: NCI 60 cell line panel (SRB), HCC-2998; assay type: cell-based; conditions: Homo sapiens; HCC-2998, Colon Cancer; single dose of 10 μM; read-out: Cell Growth Percent
OVCAR-4 = experiment: NCI 60 cell line panel (SRB), OVCAR-4; assay type: cell-based; conditions: Homo sapiens; OVCAR-4, Ovarian Cancer; single dose of 10 μM; read-out: Cell Growth Percent
OVCAR-8 = experiment: NCI 60 cell line panel (SRB), OVCAR-8; assay type: cell-based; conditions: Homo sapiens; OVCAR-8, Ovarian Cancer; single dose of 10 μM; read-out: Cell Growth Percent
DU-145 = experiment: NCI 60 cell line panel (SRB), DU-145; assay type: cell-based; conditions: Homo sapiens; DU-145, Prostate Cancer; single dose of 10 μM; read-out: Cell Growth Percent
SK-OV-3 = experiment: NCI 60 cell line panel (SRB), SK-OV-3; assay type: cell-based; conditions: Homo sapiens; SK-OV-3, Ovarian Cancer; single dose of 10 μM; read-out: Cell Growth Percent
NCI/ADR-RES = experiment: NCI 60 cell line panel (SRB), NCI/ADR-RES; assay type: cell-based; conditions: Homo sapiens, Ovarian Cancer, single dose of 10 μM, read-out: Cell Growth Percent

Structure (SMILES) | activity at 10 µM (HCT-15) | activity at 10 µM (SF-268) | activity at 10 µM (SW-620) | activity at 10 µM (RXF 393) | inhibition at 10 µM (VEGFR-2 (KDR)) | activity at 10 µM (CCRF-CEM) | activity at 10 µM (ACHN) | activity at 10 µM (A498) | activity at 10 µM (NCI-H23) | activity at 10 µM (RPMI-8226) | activity at 10 µM (CAKI-1) | activity at 10 µM (NCI-H522) | activity at 10 µM (HT29) | activity at 10 µM (HOP-92) | activity at 10 µM (MDA-MB-231/ATCC) | activity at 10 µM (OVCAR-3) | activity at 10 µM (SK-MEL-2) | activity at 10 µM (MCF7) | activity at 10 µM (UACC-257) | activity at 10 µM (T-47D) | further results
O=C(Nc1ccc(Nc2ncnc3sc4c(c23)CCCC4)cc1)Nc1cccc(Cl)c1 [Compound 20d] | 104% | 106% | 108% | 115% | 19% | 97.7% | 99.7% | 86.7% | 103% | 106% | 97.2% | 92.1% | 87.8% | 102% | 101% | 110% | 116% | 91.9% | 93.8% | 100% | activity at 10 µM (NCI-H226): 103%; activity at 10 µM (PC-3): 96%; activity at 10 µM (LOX IMVI): 103%; activity at 10 µM (EKVX): 96.9%; activity at 10 µM (UO-31): 90.9%; activity at 10 µM (HL-60(TB)): 98.9%; activity at 10 µM (SF-295): 96.8%; activity at 10 µM (HCC-2998): 103%; activity at 10 µM (OVCAR-4): 101%; activity at 10 µM (OVCAR-8): 112%; activity at 10 µM (DU-145): 110%; activity at 10 µM (SK-OV-3): 98.6%; activity at 10 µM (NCI/ADR-RES): 113%
O=C(Nc1ccccc1)Nc1ccc(Oc2ncnc3sc4c(c23)CCCC4)cc1 [Compound 21a] | 49.2% | 76.3% | 92% | 72% | > 70% | 64.9% | 78.7% | 56.7% | 66.4% | 50.5% | 83.4% | 15.6% | 74.3% | 78.4% | 66.2% | 74.9% | 87.6% | 44.5% | 90.4% | 37.9% | IC50 (VEGFR-2 (KDR); 5 concentrations 1 nM - 10 μM): 454 nM; activity at 10 µM (NCI-H226): 66.6%; activity at 10 µM (PC-3): 33.4%; activity at 10 µM (LOX IMVI): 69.5%; activity at 10 µM (EKVX): 60.8%; activity at 10 µM (UO-31): 55.2%; activity at 10 µM (HL-60(TB)): 102%; activity at 10 µM (SF-295): 64.9%; activity at 10 µM (HCC-2998): 89.6%; activity at 10 µM (OVCAR-4): 55.1%; activity at 10 µM (OVCAR-8): 93.5%; activity at 10 µM (DU-145): 86.1%; activity at 10 µM (SK-OV-3): 72.2%; activity at 10 µM (NCI/ADR-RES): 63.2%
CCOC(=O)c1c(C)oc2ncnc(Nc3ccc(NC(=O)Nc4ccc(CC)cc4)cc3)c12 [Compound 15i] | 105% | 103% | 113% | 98.2% | 23% | 93.7% | 98.8% | 109% | 90.7% | 95% | 98.3% | 83.7% | 103% | 94.3% | 94.6% | 118% | 120% | 94.9% | 111% | 78.2% | activity at 10 µM (NCI-H226): 104%; activity at 10 µM (PC-3): 90.7%; activity at 10 µM (LOX IMVI): 100%; activity at 10 µM (EKVX): 102%; activity at 10 µM (UO-31): 94.7%; activity at 10 µM (HL-60(TB)): 103%; activity at 10 µM (SF-295): 109%; activity at 10 µM (HCC-2998): 114%; activity at 10 µM (OVCAR-4): 105%; activity at 10 µM (OVCAR-8): 112%; activity at 10 µM (DU-145): 103%; activity at 10 µM (SK-OV-3): 88.2%; activity at 10 µM (NCI/ADR-RES): 97.2%
